This passage reports inhibition in vivo results from patent US3957978A, “Phosphonium anti-parasitics” (American Cyanamid Company, priority 1975, dated 1976).

Molecules are shown by their SMILES. Where two headings read alike, the source gives them in different places.

The assay deals with Nematospiroides dubius. Nature of the assay: Evaluation (Efficacy) Test in Mice, Nematospiroides dubius. The class given is in vivo. The conditions noted are these: Heligmosomoides polygyrus, read-out: % Efficacy N.d.; for inhibition in vivo at 0.003 %: 0.003 % diet; for inhibition in vivo at 0.006 %: 0.006 % diet; for inhibition in vivo at 0.0125 %: 0.0125 % diet; for inhibition in vivo at 0.025 %: 0.025 % diet. An excerpt:
The primary target parasite of this test is Nematospiroides dubius (Family: Heligmosomidae), which is phylogenetically related to certain economically important parasites of domestic and farm animals. Mice are orally inoculated with 20 to 30 infective N. dubius larvae. Mixed infections are obtained by subsequent inoculation with Aspicularis tetraptera and Hymenolepis nana. Eighteen days after inoculation the mice are divided into groups of four. Each group receives one compound at a specified dose rate, either as a single gavage dose or fed continually in the feed. Four groups of five mice each are utilized as infected, untreated controls. […] Those mice receiving single oral doses (SOD) or a single subcutaneous injection (Sc) of 5 mg./kg. to 100 mg./kg. of animal body weight of the compound under test are treated 22 days after inoculation. Eight days after start of treatment (drug diet) and 4 days post treatment (single dose SOD or Sc), the mice are necropsied, the worms recovered and counted. Percent efficacy for Nematospiroides is calculated using the formula: % Efficacy Equals [formula]
The diet used in the test procedures is a standard commercial mouse chow containing meat and bone meal, dried skimmed milk, wheat germ meal, fish meal, animal liver meal, dried beet pulp, ground extended corn, oat middlings, soybean meal, dehydrated alfalfa meal, cane molasses. animal fat preserved with BHA, vitamin B-12 supplement, calcium panthotenate, choline chloride, folic acid, riboflavin supplement, brewer's dried yeast, thiamine, niacin, vitamin A supplement, D activated plant sterol, vitamin E supplement, dicalcium phosphate, iodized salt, ferric ammonium citrate, iron oxide, manganous oxide, cobalt carbonate, copper oxide and zinc oxide; and the desired level of test compound.
When the drug is administered as a single oral dose, the drug is weighed and suspended in 0.2% agar, thoroughly mixed and orally introduced at the required volume.

Consider `CC(=P(c1ccccc1)(c1ccccc1)c1ccccc1)[P+](c1ccccc1)(c1ccccc1)c1ccccc1` [Type II, R2 Methyl, X I, Triphenyl[1-(triphenylphosphoranylidene)ethyl]-phosphonium Iodide], for which, for the setting “po, 168 h, drug diet, 7 days”, the inhibition in vivo at 0.003 % is 57%, the inhibition in vivo at 0.006 % worked out at 98% and the inhibition in vivo at 0.0125 % stood at 99%. Besides, under “po, single oral dose”, the inhibition in vivo at 5 mg/kg was determined as 65%, the inhibition in vivo at 10 mg/kg amounted to 96% and the inhibition in vivo at 25 mg/kg was 98%. Further, where the note is “sc, subcutaneous”, the inhibition in vivo at 5 mg/kg was 80%, the inhibition in vivo at 10 mg/kg worked out at 95% and the inhibition in vivo at 25 mg/kg stood at 100%.

On to `COc1cccc(CC(=P(c2ccccc2)(c2ccccc2)c2ccccc2)[P+](c2ccccc2)(c2ccccc2)c2ccccc2)c1` [Type II, R2 m-methoxybenzyl, X Cl], for which, where the note is “po, 168 h, drug diet, 7 days”, the inhibition in vivo at 0.0125 % is 58% and the inhibition in vivo at 0.025 % came out at 88%. Besides, the inhibition in vivo at 0.05 % (po, 168 h, drug diet, 0.05 % diet, 7 days) was found to be 100%. Further, under “po, single oral dose”, the inhibition in vivo at 50 mg/kg was determined as 58% and the inhibition in vivo at 100 mg/kg was 76%.

As to `CCCCCCC(=P(c1ccccc1)(c1ccccc1)c1ccccc1)[P+](c1ccccc1)(c1ccccc1)c1ccccc1` [Type II, R2 n-Hexyl, X Br], for the setting “po, 168 h, drug diet, 7 days”, the inhibition in vivo at 0.006 % was 58%, the inhibition in vivo at 0.0125 % was 79% and the inhibition in vivo at 0.025 % stood at 100%. For the same molecule, for the setting “po, single oral dose”, the inhibition in vivo at 25 mg/kg came to 39%, the inhibition in vivo at 50 mg/kg was 61% and the inhibition in vivo at 100 mg/kg came to 94%.

With `CCCC(=P(c1ccccc1)(c1ccccc1)c1ccccc1)[P+](c1ccccc1)(c1ccccc1)c1ccccc1` [Type II, R2 n-Propyl, X I], where the note is “po, 168 h, drug diet, 7 days”, the inhibition in vivo at 0.003 % is 50%, the inhibition in vivo at 0.006 % came to 86%, the inhibition in vivo at 0.0125 % is 88% and the inhibition in vivo at 0.025 % is 100%. Also, where the note is “po, single oral dose”, the inhibition in vivo at 10 mg/kg turned out to be 42%, the inhibition in vivo at 25 mg/kg was determined as 63% and the inhibition in vivo at 50 mg/kg amounted to 100%.
